17 molecules from patent US10898481B2 (priority 2018, dated 2021) can be followed below.

The target of one assay is hA1 (Homo sapiens (Human), UniProt P30542). Particulars: hA1 membrane, [3H]-DPCPX; read-out: Binding Affinity (IC50 nM) hA1. The source says: (§1) The empty boxes in the tables below indicate data not collected yet.
For the next assay, the target named is hA3/CHO (Homo sapiens (Human), UniProt P0DMS8). Briefly: cell-based. Here is the method:
hA2a/CHO, hA2b/CHO, hA3/CHO and mA2a/CHO (Genscript) were plated at 5×10^3 cells/well into 384-well polystyrene plates at the day of experiment. Compounds were pre-incubated with cells for 30 min at 37° C., 5% CO2. Then 10 μM adenosine was added to the cells and incubated for 30 min at 37° C., 5% CO2. Detection reagent (CISBIO) was added and the plates were incubated for 60 min at room temperature. The signal was captured by Envision.

A further assay has as its target hA2b (Homo sapiens (Human), UniProt P29275). As to the kind of experiment: Radioligand binding to hA2b membrane with [3H]-DPCPX. The following applies: read-out: Binding Affinity (IC50 nM) hA2b.
Source text: as §1

Assay [1] addresses hADORA1/CHO (hA1 expressing) cells (Homo sapiens (Human), UniProt P30542). Briefly: cell-based. Particulars: 10 μM adenosine.
Description: hADORA1/CHO (hA1 expressing) cells (Genscript) were plated at 1×10^4 cells/well into 384-well polystyrene plates one day before starting the experiment. On the day of experiment, the supernatant was discard and replaced with 40 μL of dye (FLIPR calcium 5 Assay Kit) per well and the plates were incubated for 60 mins at 37° C. plus 5% CO2. Then testing compounds were added at different concentrations for FLIPR™ inhibition assay. After a 400s incubation with compound, 10 μM adenosine was added into the cells, and the signal was captured by FLIPR.
For the next assay, the target named is hA2a/CHO (Homo sapiens (Human), UniProt P29274). As to the kind of experiment: cAMP inhibition assay in hA2a/CHO cells, 10 μM adenosine.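 Note: compounds added to cells 30 min ahead of adenosine, then a further 30 min at 37 °C with adenosine before cAMP detection.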 The following applies: read-out: cAMP & FLIPR IC50 (nM) hA2a. The assay is classed as cell-based.
Sequence of hA2a/CHO (P29274 whole entry): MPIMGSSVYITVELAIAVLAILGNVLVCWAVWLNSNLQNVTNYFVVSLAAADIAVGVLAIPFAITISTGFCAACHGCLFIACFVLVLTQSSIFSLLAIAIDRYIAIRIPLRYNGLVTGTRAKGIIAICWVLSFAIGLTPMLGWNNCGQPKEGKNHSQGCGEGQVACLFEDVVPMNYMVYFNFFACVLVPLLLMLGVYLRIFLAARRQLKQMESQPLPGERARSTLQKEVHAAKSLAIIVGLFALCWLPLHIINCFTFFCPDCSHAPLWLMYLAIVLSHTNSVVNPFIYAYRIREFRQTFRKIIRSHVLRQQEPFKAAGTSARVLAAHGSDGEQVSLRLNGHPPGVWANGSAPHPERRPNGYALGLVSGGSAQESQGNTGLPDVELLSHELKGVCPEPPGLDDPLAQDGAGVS
For a further assay, the target named is mA2a/CHO (Mus musculus (Mouse), UniProt Q60613). Briefly: cAMP inhibition assay in mA2a/CHO cells, 10 μM adenosine.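 Note: compounds preincubated 30 min at 37 °C before the adenosine challenge, then 30 min further stimulation, readout after 60 min detection reagent incubation at room temperature in 384-well plates.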 The assay is classed as cell-based. Particulars: read-out: cAMP & FLIPR IC50 (nM) mA2a.
Sequence of mA2a/CHO (Q60613 whole entry): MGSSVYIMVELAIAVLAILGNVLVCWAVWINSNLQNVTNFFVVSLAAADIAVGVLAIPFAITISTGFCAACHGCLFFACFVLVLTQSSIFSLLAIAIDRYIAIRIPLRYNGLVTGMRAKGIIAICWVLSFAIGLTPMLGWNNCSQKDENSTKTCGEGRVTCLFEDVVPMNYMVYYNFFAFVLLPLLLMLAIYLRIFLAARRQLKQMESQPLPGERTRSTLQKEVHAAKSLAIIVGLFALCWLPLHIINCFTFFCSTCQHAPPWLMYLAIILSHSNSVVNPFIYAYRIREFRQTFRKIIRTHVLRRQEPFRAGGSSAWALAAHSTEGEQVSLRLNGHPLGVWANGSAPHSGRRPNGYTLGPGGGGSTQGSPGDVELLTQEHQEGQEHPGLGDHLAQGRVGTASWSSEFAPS
The next assay has as its target hA2a (Homo sapiens (Human), UniProt P29274). Briefly: Radioligand binding to hA2a membrane with [3H]-CGS21680. Particulars: read-out: Binding Affinity (IC50 nM) hA2a.
Source text: as §1

A further assay addresses hA2b/CHO (Homo sapiens (Human), UniProt P29275). Briefly: cAMP inhibition assay in hA2b/CHO cells, 10 μM adenosine.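 Note: cells exposed to compound 30 min at 37 °C, then stimulated with adenosine a further 30 min, cAMP read after 60 min at room temperature.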 The assay is classed as cell-based. Particulars: read-out: cAMP & FLIPR IC50 (nM) hA2b.
Where [2] appears, read: FLIPR inhibition, read-out: cAMP & FLIPR IC50 (nM) hA1.
The mark [3] stands for this setting: cAMP & FLIPR IC50 (nM) hA1, FLIPR inhibition.

Structures are written as SMILES. Where two headings read alike, the source gives them in different places. Some results are limits rather than exact numbers.

One may read the IC50 as the concentration that inhibits the measured activity by half.

Sequence of hA2a (P29274 whole entry): as the sequence (P29274 whole entry) above
Sequence of hADORA1/CHO (hA1 expressing) cells (P30542 whole entry): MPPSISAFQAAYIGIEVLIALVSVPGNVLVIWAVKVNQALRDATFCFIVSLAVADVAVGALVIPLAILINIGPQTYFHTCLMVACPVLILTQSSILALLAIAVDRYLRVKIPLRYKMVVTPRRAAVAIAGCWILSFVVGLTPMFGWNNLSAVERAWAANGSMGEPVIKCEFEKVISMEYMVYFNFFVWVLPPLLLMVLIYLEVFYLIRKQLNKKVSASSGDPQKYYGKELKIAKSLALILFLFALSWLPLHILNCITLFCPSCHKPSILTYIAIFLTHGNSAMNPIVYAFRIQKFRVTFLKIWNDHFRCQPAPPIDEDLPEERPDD
Sequence of hA1 (P30542 whole entry): as above
Sequence of hA2b/CHO (P29275 whole entry): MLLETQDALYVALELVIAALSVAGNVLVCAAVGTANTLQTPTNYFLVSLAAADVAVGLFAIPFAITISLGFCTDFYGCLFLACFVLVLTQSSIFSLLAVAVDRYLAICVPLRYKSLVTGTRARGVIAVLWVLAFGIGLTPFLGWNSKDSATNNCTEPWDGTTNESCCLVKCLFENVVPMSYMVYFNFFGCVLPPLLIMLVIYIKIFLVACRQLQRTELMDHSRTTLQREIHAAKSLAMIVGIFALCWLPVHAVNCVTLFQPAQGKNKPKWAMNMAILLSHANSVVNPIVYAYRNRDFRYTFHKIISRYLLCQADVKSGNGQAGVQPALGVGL
Sequence of hA3/CHO (P0DMS8 whole entry): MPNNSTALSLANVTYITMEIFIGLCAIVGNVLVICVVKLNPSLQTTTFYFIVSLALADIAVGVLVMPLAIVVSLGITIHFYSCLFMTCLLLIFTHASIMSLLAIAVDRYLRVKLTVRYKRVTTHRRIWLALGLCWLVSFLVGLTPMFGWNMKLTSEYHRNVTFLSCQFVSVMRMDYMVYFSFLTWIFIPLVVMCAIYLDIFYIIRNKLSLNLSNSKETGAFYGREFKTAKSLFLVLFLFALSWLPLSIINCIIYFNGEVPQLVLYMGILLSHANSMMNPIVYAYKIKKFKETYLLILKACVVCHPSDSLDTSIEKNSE
Sequence of hA2b (P29275 whole entry): as the sequence (P29275 whole entry) above

As to `Cn1cc(-c2nc(C(=O)NCc3c(F)cccc3F)c(N)nc2-c2ncco2)ccc1=O` [Example 3, 3-amino-N-(2,6-difluorobenzyl)-6-(1-methyl-6-oxo-1,6-dihydropyridin-3-yl)-5-(oxazol-2-yl)pyrazine-2-carboxamide], the IC50 at hA1 was 16 nM; on hA3/CHO, at least 10000 nM; on hA2b, 1.4 nM; in assay [1] (setting [2]), 159 nM; on hA2a/CHO, 4.5 nM; on mA2a/CHO, 5.8 nM. For the same molecule, the IC50 stood at 1.9 nM on hA2a and 53 nM at hA2b/CHO.
Take `CN(C)c1cccnc1CNC(=O)c1nc(-c2ccc(=O)n(C)c2)c(-c2ncco2)nc1N` [Example 16, 3-amino-N-((3-(dimethylamino)pyridin-2-yl)methyl)-6-(1-methyl-6-oxo-1,6-dihydropyridin-3-yl)-5-(oxazol-2-yl)pyrazine-2-carboxamide]: the IC50 at hA1 was determined as 15 nM; in assay [1] (setting [2]), 32 nM; at hA2a/CHO it was 5.3 nM; on mA2a/CHO it was 8.3 nM; on hA2a, 3.9 nM; on hA2b/CHO it was 336 nM.
With `CNc1cccc(CNC(=O)c2nc(-c3ccc(=O)n(C)c3)c(-c3ncco3)nc2N)n1` [Example 23, 3-amino-6-(1-methyl-6-oxo-1,6-dihydropyridin-3-yl)-N-[[6-(methylamino)pyridin-2-yl]methyl]-5-(1,3-oxazol-2-yl)pyrazine-2-carboxamide], the IC50 on hA3/CHO is at least 10000 nM; on hA2b, 2.9 nM; in assay [1] (setting [2]), 281 nM; at hA2a/CHO, 25 nM; at mA2a/CHO, 64 nM; on hA2a it was 3.5 nM. On hA2b/CHO, the IC50 came out at 880 nM.
Regarding `Nc1nc(-c2ncco2)c(-c2ccc3nccn3c2)nc1C(=O)NCc1ncccc1F` [Example 43, 3-amino-N-((3-fluoropyridin-2-yl)methyl)-6-(imidazo[1,2-a]pyridin-6-yl)-5-(oxazol-2-yl)pyrazine-2-carboxamide], the IC50 at hA1 came out at 245 nM; in assay [1] (setting [3]) it was 10000 nM; at hA2a/CHO it was 49 nM; on mA2a/CHO it was 240 nM; at hA2a it was 21 nM; on hA2b/CHO it was 159 nM.
`Nc1cccc(CNC(=O)c2nc(-c3ccc4nccn4c3)c(-c3ncco3)nc2N)n1` [Example 48, 3-amino-N-[(6-aminopyridin-2-yl)methyl]-6-[imidazo[1,2-a]pyridin-6-yl]-5-(1,3-oxazol-2-yl) pyrazine-2-carboxamide]: the IC50 on hA1 was 67 nM; in assay [1] (setting [2]), 7160 nM; at hA2a/CHO, 19 nM; on mA2a/CHO, 256 nM; at hA2a, 3.1 nM; at hA2b/CHO, 84 nM.
As for `Cn1cnc2ccc(-c3nc(C(=O)NCc4ncccc4F)c(N)nc3-c3ncco3)cc21` [Example 51, 3-amino-N-((3-fluoropyridin-2-yl)methyl)-6-(3-methyl-3H-benzo[d]imidazol-5-yl)-5-(oxazol-2-yl)pyrazine-2-carboxamide], the IC50 at hA1 turned out to be 78 nM; in assay [1] (setting [2]), 2500 nM; on hA2a/CHO, 1.2 nM; at mA2a/CHO, 9.6 nM; on hA2a, 2.1 nM; at hA2b/CHO, 5.5 nM.
Consider `COc1ccccc1CNC(=O)c1nc(-c2cc(C)nc(C)c2)c(-c2ccc(C)o2)nc1N` [Example 61, 3-amino-6-(2,6-dimethylpyridin-4-yl)-N-(2-methoxybenzyl)-5-(5-methylfuran-2-yl)pyrazine-2-carboxamide], for which the IC50 on hA1 was 52 nM; on hA2a/CHO it was 0.6 nM; on mA2a/CHO, 6 nM; at hA2a it was 7.9 nM; at hA2b/CHO it was at least 10000 nM.
Turning to `Cn1cc(-c2nc(C(=O)NC(CO)c3c(F)cccc3F)c(N)nc2-c2ncco2)ccc1=O` (centres unmarked) [Example 98, 3-amino-N-(1-(2,6-difluorophenyl)-2-hydroxyethyl)-6-(1-methyl-6-oxo-1,6-dihydropyridin-3-yl)-5-(oxazol-2-yl) pyrazine-2-carboxamide], the IC50 at hA1 amounted to 10 nM; in assay [1] (setting [3]) it was 70 nM; at hA2a/CHO it was 21 nM; on mA2a/CHO it was 64 nM; at hA2a it was 9.3 nM; at hA2b/CHO, 126 nM.
Take `Nc1nc(-c2ncco2)c(-c2ccc3ncnn3c2)nc1C(=O)NCc1ncccc1F` [Example 100, 6-([1,2,4]triazolo[1,5-a]pyridin-6-yl)-3-amino-N-((3-fluoropyridin-2-yl)methyl)-5-(oxazol-2-yl)pyrazine-2-carboxamide]: the IC50 at hA1 came to 685 nM; in assay [1] (setting [3]), 10000 nM; at hA2a/CHO, 76 nM; at mA2a/CHO it was 4530 nM; at hA2a it was 8.4 nM; at hA2b/CHO it was 312 nM.
On to `Cc1cnc2ccc(-c3nc(C(=O)NC[C@H]4CCCO4)c(N)nc3-c3ncco3)cn12` [Example 126, (R)-3-amino-6-(3-methylimidazo[1,2-a]pyridin-6-yl)-5-(oxazol-2-yl)-N-((tetrahydrofuran-2-yl)methyl)pyrazine-2-carboxamide], for which the IC50 at hA1 amounted to 78 nM; in assay [1] (setting [3]), 1230 nM; at hA2a/CHO, 1.6 nM; on mA2a/CHO, 7 nM; at hA2a, 1.4 nM; at hA2b/CHO, 77 nM.
In the case of `Cc1cnc2ccc(-c3nc(C(=O)NC[C@@H]4CCCO4)c(N)nc3-c3ncco3)cn12` [Example 127, (S)-3-amino-6-(3-methylimidazo[1,2-a]pyridin-6-yl)-5-(oxazol-2-yl)-N-((tetrahydrofuran-2-yl)methyl)pyrazine-2-carboxamide], the IC50 at hA1 worked out at 68 nM; in assay [1] (setting [3]), 2420 nM; on hA2a/CHO it was 1.7 nM; on mA2a/CHO, 14 nM; on hA2a, 3.1 nM; at hA2b/CHO, 99 nM.
Turning to `Cc1cnc2ccc(-c3nc(C(=O)NC(C)C)c(N)nc3-c3ncco3)cn12` [Example 133, 3-amino-N-isopropyl-6-(3-methyl-imidazo[1,2-a]pyridin-6-yl)-5-(oxazol-2-yl)pyrazine-2-carboxamide], the IC50 at hA1 was determined as 271 nM; in assay [1] (setting [3]), 10000 nM; at hA2a/CHO, 5.9 nM; at mA2a/CHO, 19 nM; at hA2a it was 2.7 nM; at hA2b/CHO, 554 nM.
For `Cc1cnc2ccc(-c3nc(C(=O)NC[C@H]4CCOC4)c(N)nc3-c3ncco3)cn12` [Example 136, (R)-3-amino-6-(3-methylimidazo[1,2-a]pyridin-6-yl)-5-(oxazol-2-yl)-N-((tetrahydrofuran-3-yl)methyl)pyrazine-2-carboxamide], the half-maximal inhibitory concentration (IC50) at hA1 amounted to 182 nM; in assay [1] (setting [3]), 10000 nM; on hA2a/CHO, 1.8 nM; on mA2a/CHO, 27 nM; on hA2a, 1.7 nM; at hA2b/CHO, 512 nM.
In the case of `Cc1cnc2ccc(-c3nc(C(=O)NC[C@@H]4CCOC4)c(N)nc3-c3ncco3)cn12` [Example 137, (S)-3-amino-6-(3-methylimidazo[1,2-a]pyridin-6-yl)-5-(oxazol-2-yl)-N-((tetrahydrofuran-3-yl)methyl)pyrazine-2-carboxamide], the IC50 on hA1 amounted to 195 nM; in assay [1] (setting [3]), 10000 nM; at hA2a/CHO, 1.7 nM; on mA2a/CHO it was 34 nM; at hA2a, 3.9 nM; on hA2b/CHO, 464 nM.
As to `COCCNC(=O)c1nc(-c2ccc3ncc(C)n3c2)c(-c2ncco2)nc1N` [Example 147, 3-amino-N-(2-methoxyethyl)-6-(3-methylimidazo[1,2-a]pyridin-6-yl)-5-(oxazol-2-yl)pyrazine-2-carboxamide], the IC50 at hA1 is 108 nM; in assay [1] (setting [2]) it was 2380 nM; at hA2a/CHO, 3.8 nM; at mA2a/CHO, 15 nM; at hA2a, 5.6 nM; on hA2b/CHO it was 134 nM.
In the case of `COC[C@H](C)NC(=O)c1nc(-c2ccc3ncc(C)n3c2)c(-c2ncco2)nc1N` [Example 160, (S)-3-amino-N-(1-methoxypropan-2-yl)-6-(3-methylimidazo[1,2-a]pyridin-6-yl)-5-(oxazol-2-yl)pyrazine-2-carboxamide], the IC50 at hA1 was 333 nM; in assay [1] (setting [2]) it was 4860 nM; on hA2a/CHO it was 0.26 nM; at mA2a/CHO it was 0.89 nM; on hA2a it was 3.15 nM; at hA2b/CHO, 163 nM.
With `Cc1cnc2ccc(-c3nc(C(=O)NC4CCC4)c(N)nc3-c3ncco3)cn12` [Example 218, 3-amino-N-cyclobutyl-6-(3-methylimidazo[1,2-a]pyridin-6-yl)-5-(oxazol-2-yl)pyrazine-2-carboxamide], the IC50 was 475 nM at hA1; above 10000 nM in assay [1] (setting [2]); 1.5 nM at hA2a/CHO; 28 nM at mA2a/CHO; 9.1 nM on hA2a; 359 nM on hA2b/CHO.
